In US7235536B2, “Cellulose sulfate and other sulfated polysaccharides to prevent and treat papilloma virus infection and other infections” (Rush Presbyterian-St. Luke's Medical Center, priority 2000, dated 2007):

What was measured:
Test in all cases: Microbial challenge of CS gel
Assay type in all cases: cell-based
Candida albicans = tested on: Candida albicans
Protocol: (§1) 6% CS was prepared in water as a translucent gel. Twenty grams of the gel was placed in a plastic screw-cap centrifuge tube. The microbial inoculants were prepared, gently vortexed and 0.1 ml inoculant was aseptically pipetted into the 20.0 gram gel. This procedure was repeated for each microbial organism. The samples were incubated at room temperature (20-25° C.) for 14 days or 28 days. The microbes tested and their theoretical yields can be found in Table F. After 14 or 28 days incubation, dilutions (10^−1, 10^−2, 10^−3) of the gels were made in saline and 1 ml plated onto Sabouraud dextrose (Aspergillus and Candida) or onto tryptic soy (other microbes). The number of organisms that grew after 3-7 days at room temperature were counted.
(§2) In another study, CS was dissolved in water at the concentrations indicated below. No other ingredients, including preservatives, were added. The gels were challenged with microbes as described above except that the gels were examined for the presence of microbes after 1, 2, 3, 4 and 7 days. The amount of microbes origially inoculated in the gels is also shown below.

Escherichia coli = tested on: Escherichia coli
Protocol: as §1, §2

Staphylococcus aureus = tested on: Staphylococcus aureus
Protocol: as §1, §2

## sodium cellulose sulfate
Candida albicans; CS 1.2% in water, 48 hours
  Candida albicans CFU: 0 CFU × 10^5/ml
Candida albicans; CS 1.2% in water, 72 hours
  Candida albicans CFU: 0 CFU × 10^5/ml
Candida albicans; CS 1.2% in water, 96 hours
  Candida albicans CFU: 0 CFU × 10^5/ml
Candida albicans; CS 1.2% in water, 7 days
  Candida albicans CFU: 0 CFU × 10^5/ml
Candida albicans; CS 6% in water, 24 hours
  Candida albicans CFU: 0 CFU × 10^5/ml
Candida albicans; CS 6% in water, 48 hours
  Candida albicans CFU: 0 CFU × 10^5/ml
Candida albicans; CS 6% in water, 72 hours
  Candida albicans CFU: 0 CFU × 10^5/ml
Candida albicans; CS 6% in water, 96 hours
  Candida albicans CFU: 0 CFU × 10^5/ml
Candida albicans; CS 6% in water, 7 days
  Candida albicans CFU: 0 CFU × 10^5/ml
Candida albicans; CS gel 1.2 and 6%
  inactivation of Candida: Complete inactivation
Candida albicans; CS gel in as low a concentration as 0.6%
  inactivation of Candida: inactivated
Escherichia coli; 6% CS gel
  inactivation of Escherichia: completely inactivated
Escherichia coli; 6% CS gel, ATCC 8739, room temperature, Day 14
  Day 14 CFU/g: 0 CFU/g
Escherichia coli; 6% CS gel, ATCC 8739, room temperature, Day 28
  Day 28 CFU/g: 0 CFU/g
Escherichia coli; CS 0.06% in water, 24 hours
  Escherichia coli CFU: 0 CFU × 10^5/ml
Escherichia coli; CS 0.06% in water, 48 hours
  Escherichia coli CFU: 1.15 CFU × 10^5/ml
Escherichia coli; CS 0.06% in water, 72 hours
  Escherichia coli CFU: 1.21 CFU × 10^5/ml
Escherichia coli; CS 0.06% in water, 96 hours
  Escherichia coli CFU: 0.13 CFU × 10^5/ml
Escherichia coli; CS 0.06% in water, 7 days
  Escherichia coli CFU: 1.12 CFU × 10^5/ml
Escherichia coli; CS 0.6% in water, 24 hours
  Escherichia coli CFU: 5.6 CFU × 10^5/ml
Escherichia coli; CS 0.6% in water, 48 hours
  Escherichia coli CFU: 5.81 CFU × 10^5/ml
Escherichia coli; CS 0.6% in water, 72 hours
  Escherichia coli CFU: 4.43 CFU × 10^5/ml
Escherichia coli; CS 0.6% in water, 96 hours
  Escherichia coli CFU: 6.92 CFU × 10^5/ml
Escherichia coli; CS 0.6% in water, 7 days
  Escherichia coli CFU: 4.39 CFU × 10^5/ml
Escherichia coli; CS 1.2% in water, 24 hours
  Escherichia coli CFU: 0.98 CFU × 10^5/ml
Escherichia coli; CS 1.2% in water, 48 hours
  Escherichia coli CFU: 3.125 CFU × 10^5/ml
Escherichia coli; CS 1.2% in water, 72 hours
  Escherichia coli CFU: 1.625 CFU × 10^5/ml
Escherichia coli; CS 1.2% in water, 96 hours
  Escherichia coli CFU: 4.54 CFU × 10^5/ml
Escherichia coli; CS 1.2% in water, 7 days
  Escherichia coli CFU: 3.78 CFU × 10^5/ml
Escherichia coli; CS 6% in water, 24 hours
  Escherichia coli CFU: 0 CFU × 10^5/ml
Escherichia coli; CS 6% in water, 48 hours
  Escherichia coli CFU: 0.01 CFU × 10^5/ml
Escherichia coli; CS 6% in water, 72 hours
  Escherichia coli CFU: 0 CFU × 10^5/ml
Escherichia coli; CS 6% in water, 96 hours
  Escherichia coli CFU: 0 CFU × 10^5/ml
Escherichia coli; CS 6% in water, 7 days
  Escherichia coli CFU: 0 CFU × 10^5/ml
Escherichia coli; lower CS concentrations (except 0.06% CS gel), no growth occurs
  inactivation of Escherichia: either not inactivated or only to a minor extent
Staphylococcus aureus; 0.06% CS gel, slow growth thereafter
  inactivation of Staphylococcus: initially inactivated most Staphylococcus
Staphylococcus aureus; 6% CS gel
  inactivation of Staphyloccus: completely inactivated
Staphylococcus aureus; 6% CS gel, ATCC 6538, room temperature, Day 14
  Day 14 CFU/g: 0 CFU/g
Staphylococcus aureus; 6% CS gel, ATCC 6538, room temperature, Day 28
  Day 28 CFU/g: 0 CFU/g
Staphylococcus aureus; CS 0.06% in water, 24 hours
  Staphylococcus aureus CFU: 0.625 CFU × 10^5/ml
Staphylococcus aureus; CS 0.06% in water, 48 hours
  Staphylococcus aureus CFU: 0.715 CFU × 10^5/ml
Staphylococcus aureus; CS 0.06% in water, 72 hours
  Staphylococcus aureus CFU: 1.04 CFU × 10^5/ml
Staphylococcus aureus; CS 0.06% in water, 96 hours
  Staphylococcus aureus CFU: 2.06 CFU × 10^5/ml
Staphylococcus aureus; CS 0.06% in water, 7 days
  Staphylococcus aureus CFU: 5.815 CFU × 10^5/ml
Staphylococcus aureus; CS 0.6% in water, 24 hours
  Staphylococcus aureus CFU: 5.17 CFU × 10^5/ml
Staphylococcus aureus; CS 0.6% in water, 48 hours
  Staphylococcus aureus CFU: 5.53 CFU × 10^5/ml
Staphylococcus aureus; CS 0.6% in water, 72 hours
  Staphylococcus aureus CFU: 4.82 CFU × 10^5/ml
Staphylococcus aureus; CS 0.6% in water, 96 hours
  Staphylococcus aureus CFU: 6.41 CFU × 10^5/ml
Staphylococcus aureus; CS 0.6% in water, 7 days
  Staphylococcus aureus CFU: 3.25 CFU × 10^5/ml
Staphylococcus aureus; CS 1.2% in water, 24 hours
  Staphylococcus aureus CFU: 2.71 CFU × 10^5/ml
Staphylococcus aureus; CS 1.2% in water, 48 hours
  Staphylococcus aureus CFU: 4.725 CFU × 10^5/ml
Staphylococcus aureus; CS 1.2% in water, 72 hours
  Staphylococcus aureus CFU: 2.39 CFU × 10^5/ml
Staphylococcus aureus; CS 1.2% in water, 96 hours
  Staphylococcus aureus CFU: 3.96 CFU × 10^5/ml
Staphylococcus aureus; CS 1.2% in water, 7 days
  Staphylococcus aureus CFU: 3.55 CFU × 10^5/ml
Staphylococcus aureus; CS 6% in water, 24 hours
  Staphylococcus aureus CFU: 0 CFU × 10^5/ml
Staphylococcus aureus; CS 6% in water, 48 hours
  Staphylococcus aureus CFU: 0.005 CFU × 10^5/ml
Staphylococcus aureus; CS 6% in water, 72 hours
  Staphylococcus aureus CFU: 0 CFU × 10^5/ml
Staphylococcus aureus; CS 6% in water, 96 hours
  Staphylococcus aureus CFU: 0 CFU × 10^5/ml
Staphylococcus aureus; CS 6% in water, 7 days
  Staphylococcus aureus CFU: 0 CFU × 10^5/ml
Staphylococcus aureus; lower CS concentrations
  inactivation of Staphyloccus: not inactivated but growth was prevented
